Assay: gradient 5% acetonitrile 3 min, to 50% in 2 min, to 85% in 15 min, held 3 min, 100 µL/min
Settings: column: Zorbax Extend-C18 2.1 x 50 mm; eluents: water / acetonitrile, 0.1% formic acid
How it was run: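 Mixtures of ~100 pure standards were chromatographed on a Zorbax Extend-C18 column (2.1 × 50 mm, 1.8 μm) at 100 μL/min using water and acetonitrile, each with 0.1% formic acid. Detection used a quadrupole time-of-flight mass spectrometer in positive and negative ionization mode, and data collection spanned 3 months. Retention time was obtained from adduct peaks picked computationally and each checked manually.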

Row | RP-LC retention time [s] | Structure (SMILES)
1 | 704 | COc1ccc(NC(=O)C2CCN(c3nnc4ccccn34)CC2)cc1C(F)(F)F
2 | 939 | Cc1[nH]c(C(=O)N2CCC(CC(=O)N3CCN(c4ccccc4)CC3)CC2)c(C)c1C(=O)OC(C)C
3 | 869 | Cc1onc(-c2ccccc2)c1-c1ccc(S(N)(=O)=O)cc1
4 | 797 | Cc1ccccc1C(=O)Nc1nc(-c2ccc3c(c2)NC(=O)C(C)O3)c(C)s1 (centres undefined)
5 | 794 | Cc1ccc(Cl)cc1NC(=O)CSc1nc2ncccc2c(=O)n1CC1CCCO1 (centres undefined)
6 | 643 | O=C(Nc1ccc(-c2ccc(=O)[nH]n2)cc1)c1ccc(-n2cccn2)nn1
7 | 613 | O=C(CSc1nc2ccccc2[nH]1)Nc1nccs1
8 | 680 | Cc1nc(N2CCCC(C(=O)NCCc3ccc(S(N)(=O)=O)cc3)C2)c2c(C)c(C)oc2n1 (centres undefined)
9 | 764 | O=C1CCCc2cc(S(=O)(=O)NCc3cccc(Br)c3)ccc2N1
10 | 738 | CCCNC(=O)C1CCN(S(=O)(=O)c2cc(C(=O)N3CCC(C)CC3)n(C)c2)CC1
11 | 881 | Cc1ccc(F)cc1NC(=O)c1cnc2c(c1)c(=O)n(C)c(=O)n2-c1ccccc1
12 | 1130 | Cc1sc(-c2nc(C(C)C)cs2)cc1S(=O)(=O)NCc1ccc2c(c1)OCO2
13 | 772 | O=C(Nc1cc(-c2ccccn2)no1)c1ccc2c(c1)OCO2
14 | 896 | O=C(NCc1ccccc1)c1cc2c(=O)n(Cc3ccccc3)ccc2s1
15 | 750 | O=C(Cn1cc(S(=O)(=O)N2CCOCC2)ccc1=O)N1CCCc2ccccc21
16 | 988 | COc1cccc(C(=O)N2CCc3cc(-c4csc(C)n4)ccc32)c1
17 | 738 | CCOc1ccccc1CNC(=O)c1nc(N2CCOCC2)c2ccccc2n1
18 | 764 | CCNC(=O)CCc1nc2ccccc2n(CC(=O)Nc2ccc(C(=O)OCC)cc2)c1=O
19 | 513 | Nc1ncnc2c1nnn2C1OC(CO)C(O)C1O (centres undefined)
20 | 735 | COC(=O)c1ncn2c1C(=O)N(Cc1ccccc1C)C(C)(C(=O)NCc1ccccc1)C2 (centres undefined)
21 | 812 | COCCCNC(=O)c1ccc2cnn(Cc3ccc(Cl)cc3)c2c1
22 | 723 | CN(C)c1cnc(-n2cc(NC(=O)c3ccc(F)cc3)cn2)nc1
23 | 560 | CCCN1CCN(CCCNC(=O)Cn2c3ccccc3c3cnn(C)c(=O)c32)CC1
24 | 776 | Cc1nn(-c2ccc(-c3ccccc3)nn2)c(C)c1S(=O)(=O)N1CCN(c2ccccn2)CC1
25 | 698 | CCOC(=O)c1c(C)oc2ncnc(NCC3CCN(Cc4ccc(F)cc4)CC3)c12
26 | 882 | CC(C)CNC(=O)CCn1c(=O)c2ccccc2n2c(=O)n(Cc3ccccc3)nc12
27 | 614 | COc1ccc(NC(=O)CSc2nnc(CNC(=O)c3cccs3)o2)c(OC)c1

Continued, compound first:

Row | Structure (SMILES) | RP-LC retention time [s]
28 | COC(=O)C(C)NC(=O)N1CCC2(CC1)NC(=O)c1ccccc1O2 (centres undefined) | 621
29 | CN(C)C(CNS(=O)(=O)/C=C/c1ccccc1)c1cn(C)c2ccccc12 (centres undefined) | 602
30 | Cc1ccc2[nH]cc(CCNC(=O)c3cc(-c4ccccn4)nc4ccccc34)c2c1 | 902
31 | Cc1cccc(NC(=O)CSc2cc(N3CCCC(C)C3)ncn2)c1 (centres undefined) | 1020
32 | Cc1cc(C)cc(C(=O)N2CCCC(COc3ccc(C(=O)NC(C)C)cc3)C2)c1 (centres undefined) | 931
33 | Cc1ccc(-c2noc(Cn3ccnc3C)n2)cc1C | 670
34 | O=C1CCSc2ccc(S(=O)(=O)N3CCC(C(=O)NCc4ccccc4)CC3)cc2N1 | 761
35 | COc1ccc(OC)c(NC(=O)c2ccc(S(=O)(=O)NC3CC3)cc2)c1 | 778
36 | COCCNC(=O)C1(CCO)CCN(Cc2ccccc2)C1 (centres undefined) | 560
37 | Cc1ccc(N2CCN(C(=O)c3cn(-c4cc(N5CCSCC5)ncn4)cn3)CC2)cc1 | 916
38 | COc1ccc(NC(=O)c2cc3c(=O)n(CC(C)C)ccc3n2C)cc1Cl | 895
39 | CCOC(=O)N1CCN(c2cc(C(=O)O)c3cc(NC(=O)c4ccccc4F)ccc3n2)CC1 | 628
40 | CCC(C)C1Nc2ccc(C(=O)NCCCN3CCOCC3)cc2NC1=O (centres undefined) | 584
41 | CCOC(=O)C1=C(C)NC(=O)NC1c1ccc(-c2cccc([N+](=O)[O-])c2)o1 (centres undefined) | 761
42 | CCCc1cc(N2CCN(C(=O)c3cccc(C#N)c3)CC2)nc2nncn12 | 604
43 | CCn1cc(CCNS(=O)(=O)Cc2ccc(F)cc2Cl)c2cccnc21 | 812
44 | CCn1ccc(NC(=O)Nc2cccc(C)c2)n1 | 738
45 | CCC(=O)N1CCc2cc(N3CC(C(=O)NCc4cccnc4)CC3=O)ccc21 (centres undefined) | 579
46 | COc1ccc(NC(=O)c2ccc3ncsc3c2)c([N+](=O)[O-])c1 | 800
47 | CCc1noc(-c2ccc(-n3ncc(C(=O)N4CCC(C)CC4)c3C)nc2)n1 | 1020
48 | O=C(Nc1cnn(-c2ncc(N3CCSCC3)cn2)c1)C1CCCO1 (centres undefined) | 665

Row | Structure (SMILES) | RP-LC retention time [s]
49 | CC(=O)Nc1ccc(S(=O)(=O)NCc2nc(C)no2)cc1 | 599
50 | Cc1cc(N2CCCCC2)nc(N2CCN(S(=O)(=O)c3ccc(-c4ccccc4)cc3)CC2)n1 | 935
51 | Cc1nnc2cc(N3CCN(C(=O)Nc4ccccc4F)CC3)cnn12 | 542
52 | CCOC(=O)c1[nH]c(C)c(CN(Cc2ccco2)C(=O)Cc2ccccc2)c1C | 977
53 | Cc1ccc(NC(=O)C2CCN(S(=O)(=O)c3cn(C(C)C)cn3)CC2)cc1Cl | 883
54 | O=C(CCSc1ccccc1)NCC(O)c1cccc2ccccc12 (centres undefined) | 841
55 | Cc1cccc(CNC(=O)c2cn3ccncc3n2)c1 | 705
56 | CCn1cc(S(=O)(=O)NCc2ccccc2C)c2cccnc21 | 853
57 | CCCn1cc(S(=O)(=O)Nc2cc(F)ccc2Cl)c2cccnc21 | 950
58 | O=C(c1ccc(Cl)cc1)N1CCc2nc[nH]c2C1 | 568
59 | CN1C(=O)C2(CCN(C(=O)c3ccc(Cl)cc3)C2)c2ccccc21 (centres undefined) | 851
60 | Cc1nc2ccn(Cc3ccco3)c(=O)c2cc1C(=O)NCCC1=CCCCC1 | 828
61 | COc1cccc(-c2nc(-c3cccc(-c4ccnn4C)c3)no2)c1OC | 1020
62 | O=C(CCc1nc(CSc2nnc(-c3ccccc3)o2)no1)Nc1ccccc1F | 870
63 | COc1cccc(CN2CCc3nc(N4CCCC4)ncc3C2)c1 | 600
64 | O=C(CCN1C(=O)c2cccnc2Sc2ccccc21)NCCc1c[nH]c2ccccc12 | 746
65 | CCOC(=O)C1CCN(c2cc(-n3nc(C)cc3C)ncn2)CC1 | 1000
66 | COC1C(=O)N(c2cccc(F)c2)C12CCN(C(=O)C1(c3ccccc3)CC1)CC2 (centres undefined) | 994
67 | Cc1nn2c(CNC(=O)c3ccccc3C(F)(F)F)c(C)nc2s1 | 638
68 | CCCCN1C(=O)C(C)(C(=O)NC2CCN(Cc3ccccc3)CC2)Oc2cccnc21 (centres undefined) | 694
69 | O=C(O)CC(CC(=O)NCc1ccccc1)c1ccc(Br)cc1 (centres undefined) | 712

Row | Structure (SMILES) | RP-LC retention time [s]
70 | O=C(Cc1ccccc1)N1CCCCC1c1nc(-c2cnccn2)no1 (centres undefined) | 812
71 | CCOC(=O)c1c(S(=O)(=O)N2CCC(C(=O)NCc3ccc(F)cc3)CC2)c(C)n(C)c1C | 808
72 | Cn1ccc2cc(S(=O)(=O)N3CCCC(C(=O)NCCCN4CCc5ccccc5C4)C3)ccc21 (centres undefined) | 685
73 | CN(C)c1ccc(-c2nc3cnccn3c2Nc2ccc(Br)cc2)cc1 | 894
74 | COc1ccc(CCNC(=O)CCn2c(=O)sc3ccccc32)cc1OC | 698
75 | CC(=O)N1c2ccc(S(=O)(=O)N3CCCCC3)cc2CC1C(=O)NCCN1CCCC1 (centres undefined) | 592
76 | Cc1cc(C)n(-c2ccnc(N3CCC(C(=O)NC(C)c4ccc(F)cc4)CC3)n2)n1 (centres undefined) | 872
77 | COCCN1CCn2cc(S(=O)(=O)Nc3ccccc3OC)cc2C1=O | 679
78 | C=CCN1CCN(c2nc3cc(C(=O)OC)ccc3c(=O)n2-c2ccccc2)CC1 | 637
79 | Cc1ccc2c(c1)C(O)(CC(=O)c1cccc(N)c1)C(=O)N2 (centres undefined) | 606
80 | CC(C)(C)OC(=O)N1CCN(CCNC(=O)CSc2nc3ccccc3o2)CC1 | 595
81 | COCCN1CCC2(CC1)CN(Cc1cccc(F)c1)Cc1ccccc1O2 | 629
82 | CCC(=O)N1CCc2c(C(=O)N3CCN(c4ccccc4Cl)CC3)cccc21 | 960
83 | O=C(C1CC=CCC1)N1CCCC(COCc2ccccc2)C1 (centres undefined) | 979
84 | Cc1nc(C)c(C(=O)Nc2nc(-c3ccc(Br)cc3)c(C)s2)s1 | 1100
85 | O=C(Cn1nc(C2CC2)cc1C(=O)N1CCCC1)Nc1ccc(F)c(F)c1 | 789
86 | CCc1nncn1C1CCN(C(=O)c2cc(F)ccc2F)CC1 | 604
87 | COc1ccc(-c2noc(NCCc3ccc(OC)c(OC)c3)n2)cc1 | 891
88 | O=C(NC1CCCCC1)C1CCCN(c2nccn3nc(-c4ccccc4Cl)cc23)C1 (centres undefined) | 976
89 | CC(=O)N(C1CC1)C1CCOC2(CCN(C(=O)c3ccsc3)CC2)C1 (centres undefined) | 673

Reference: the METLIN SMRT retention time set (Domingo-Almenara et al. 2019)
